Test results as given in patent US8648094B2, “IAP BIR domain binding compounds” (Pharmascience, Inc., priority 2006, dated 2014).

Test system: SKOV-3 cells
Experiment: Survival MTT assay
Type: cell-based
Settings: Homo sapiens, SK-OV-3, 72 hours
Description: One day prior the treatment with compound, 2000 to 4000 cells per well were plated in a tissue culture treated 96 well format dish with 100 uL of media and incubated at 37° C., 5% CO2. On the day of compound treatment, compounds were diluted with cell culture media to a working stock concentration of 2×. 100 ul of diluted compound were then added to each well. The treated plate was incubated for 72 hours at 37° C., 5% CO2. Upon incubation, the cell viability was assessed as follows; 20 uL of MTT reagent (5 mg/mL) were added per well to cell plate. The plate was incubated for 2 hrs at 37° C. in presence of 5% CO2. The supernatant was then removed from the plate and 100 uL of isopropanol was added. The absorbance was measured in a TECAN spectrophotometer at 570 nm. The percentage of viability was expressed in percentage of the signal obtained with non treated cells.

Compound	EC50 [nM]
CN[C@@H](C)C(=O)N[C@H](C(=O)N1CCC[C@H]1CN(CCc1ccccc1)C(=O)c1ccc(C(=O)N(CCc2ccccc2)C[C@@H]2CCCN2C(=O)[C@@H](NC(=O)[C@H](C)NC)C(C)(C)C)cc1)C(C)(C)C [Compound 1]	10 to 25
CN[C@@H](C)C(=O)N[C@H](C(=O)N1CCC[C@H]1CN(CCc1ccccc1)C(=O)CCCCCCCCC(=O)N(CCc1ccccc1)C[C@@H]1CCCN1C(=O)[C@@H](NC(=O)[C@H](C)NC)C(C)(C)C)C(C)(C)C [Compound 2]	< 10
CN[C@@H](C)C(=O)N[C@H](C(=O)N1CCC[C@H]1CN(CCc1ccccc1)C(=O)CCCC(=O)N(CCc1ccccc1)C[C@@H]1CCCN1C(=O)[C@@H](NC(=O)[C@H](C)NC)C(C)(C)C)C(C)(C)C [Compound 3]	10 to 25
CN[C@@H](C)C(=O)N[C@H](C(=O)N1CCC[C@H]1CN(CCc1ccccc1)C(=O)c1ccc(-c2ccc(C(=O)N(CCc3ccccc3)C[C@@H]3CCCN3C(=O)[C@@H](NC(=O)[C@H](C)NC)C(C)(C)C)cc2)cc1)C(C)(C)C [Compound 4]	< 10
CN[C@@H](C)C(=O)N[C@H](C(=O)N1CCC[C@H]1CN(CCc1ccccc1)C(=O)CCC(=O)N(CCc1ccccc1)C[C@@H]1CCCN1C(=O)[C@@H](NC(=O)[C@H](C)NC)C(C)(C)C)C(C)(C)C [Compound 6]	> 25
CN[C@@H](C)C(=O)N[C@H](C(=O)N1CCC[C@H]1CN(CCc1ccccc1)C(=O)CCCCCCC(=O)N(CCc1ccccc1)C[C@@H]1CCCN1C(=O)[C@@H](NC(=O)[C@H](C)NC)C(C)(C)C)C(C)(C)C [Compound 7]	10 to 25
CN[C@@H](C)C(=O)N[C@@H](CC1CCCCC1)C(=O)N1CCC[C@H]1CN(CCc1ccccc1)C(=O)CCCCCCCCC(=O)N(CCc1ccccc1)C[C@@H]1CCCN1C(=O)[C@H](CC1CCCCC1)NC(=O)[C@H](C)NC [Compound 9]	> 25
CN[C@@H](C)C(=O)N[C@H](C(=O)N1CCC[C@H]1CN(CCc1ccccc1)S(=O)(=O)c1ccc(-c2ccc(S(=O)(=O)N(CCc3ccccc3)C[C@@H]3CCCN3C(=O)[C@@H](NC(=O)[C@H](C)NC)C(C)(C)C)cc2)cc1)C(C)(C)C [Compound 13]	10 to 25
CN[C@@H](C)C(=O)N[C@H](C(=O)N1CCC[C@H]1CN(CCc1ccccc1)C(=O)CCCCCCCCCCC(=O)N(CCc1ccccc1)C[C@@H]1CCCN1C(=O)[C@@H](NC(=O)[C@H](C)NC)C(C)(C)C)C(C)(C)C [Compound 18]	10 to 25
CN[C@@H](C)C(=O)N[C@H](C(=O)N1CCC[C@H]1CN(C[C@@H](C)c1ccccc1)C(=O)CCCCCCCCC(=O)N(C[C@@H]1CCCN1C(=O)[C@@H](NC(=O)[C@H](C)NC)C(C)(C)C)C[C@@H](C)c1ccccc1)C(C)(C)C [Compound 22]	> 25
CN[C@@H](C)C(=O)N[C@H](C(=O)N1CCC[C@H]1CN(CCc1ccccc1)C(=O)c1ccc(Oc2ccc(C(=O)N(CCc3ccccc3)C[C@@H]3CCCN3C(=O)[C@@H](NC(=O)[C@H](C)NC)C(C)(C)C)cc2)cc1)C(C)(C)C [Compound 27]	> 25
CN[C@@H](C)C(=O)N[C@H](C(=O)N1CCC[C@H]1CN(CCc1ccccc1)S(=O)(=O)c1cccc(S(=O)(=O)N(CCc2ccccc2)C[C@@H]2CCCN2C(=O)[C@@H](NC(=O)[C@H](C)NC)C(C)(C)C)c1)C(C)(C)C [Compound 36]	< 10
CN[C@@H](C)C(=O)N[C@H](C(=O)N1CCC[C@H]1CN(CCc1ccccc1)C(=O)CN(C)Cc1ccc(CN(C)CC(=O)N(CCc2ccccc2)C[C@@H]2CCCN2C(=O)[C@@H](NC(=O)[C@H](C)NC)C(C)(C)C)cc1)C(C)(C)C [Compound 43]	10 to 25
CN[C@@H](C)C(=O)N[C@H](C(=O)N1CCC[C@H]1CN(CCc1ccccc1F)C(=O)CCCCCCCCC(=O)N(CCc1ccccc1F)C[C@@H]1CCCN1C(=O)[C@@H](NC(=O)[C@H](C)NC)C(C)(C)C)C(C)(C)C [Compound 46]	< 10
CN[C@@H](C)C(=O)N[C@H](C(=O)N1CCC[C@H]1CN(CCc1ccc(F)cc1)C(=O)CCC(=O)N(CCc1ccc(F)cc1)C[C@@H]1CCCN1C(=O)[C@@H](NC(=O)[C@H](C)NC)C(C)(C)C)C(C)(C)C [Compound 48]	10 to 25
CN[C@@H](C)C(=O)N[C@H](C(=O)N1CCC[C@H]1CN(CCc1ccccc1)C(=O)CNC(=O)CCCCC(=O)NCC(=O)N(CCc1ccccc1)C[C@@H]1CCCN1C(=O)[C@@H](NC(=O)[C@H](C)NC)C(C)(C)C)C(C)(C)C [Compound 50]	10 to 25
CN[C@@H](C)C(=O)N[C@H](C(=O)N1CCC[C@H]1CN(CCc1ccc(F)cc1)S(=O)(=O)c1cccc(S(=O)(=O)N(CCc2ccc(F)cc2)C[C@@H]2CCCN2C(=O)[C@@H](NC(=O)[C@H](C)NC)C(C)(C)C)c1)C(C)(C)C [Compound 57]	10 to 25

Compound	EC50 [nM]
CN[C@@H](C)C(=O)N[C@H](C(=O)N1CCC[C@H]1CN(CCc1ccc(F)cc1)C(=O)c1ccc(-c2ccc(C(=O)N(CCc3ccc(F)cc3)C[C@@H]3CCCN3C(=O)[C@@H](NC(=O)[C@H](C)NC)C(C)(C)C)cc2)cc1)C(C)(C)C [Compound 58]	10 to 25
CN[C@@H](C)C(=O)N[C@H](C(=O)N1CCC[C@H]1CN(CCc1ccccc1)C(=O)[C@@H](C)NC(=O)c1ccc(C(=O)N[C@H](C)C(=O)N(CCc2ccccc2)C[C@@H]2CCCN2C(=O)[C@@H](NC(=O)[C@H](C)NC)C(C)(C)C)cc1)C(C)(C)C [Compound 59]	< 10
CN[C@@H](C)C(=O)N[C@H](C(=O)N1CCC[C@H]1CN(CCc1ccccc1)C(=O)[C@H](C)NC(=O)c1ccc(C(=O)N[C@@H](C)C(=O)N(CCc2ccccc2)C[C@@H]2CCCN2C(=O)[C@@H](NC(=O)[C@H](C)NC)C(C)(C)C)cc1)C(C)(C)C [Compound 62]	> 25
CN[C@@H](C)C(=O)N[C@H](C(=O)N1CCC[C@H]1CN(CCc1ccccc1)C(=O)CNC(=O)c1ccc2cc(C(=O)NCC(=O)N(CCc3ccccc3)C[C@@H]3CCCN3C(=O)[C@@H](NC(=O)[C@H](C)NC)C(C)(C)C)ccc2c1)C(C)(C)C [Compound 63]	< 10
CN[C@@H](C)C(=O)N[C@H](C(=O)N1CCC[C@H]1CN(CCc1ccccc1)C(=O)c1ccc(-c2cccc(C(=O)N(CCc3ccccc3)C[C@@H]3CCCN3C(=O)[C@@H](NC(=O)[C@H](C)NC)C(C)(C)C)c2)cc1)C(C)(C)C [Compound 64]	10 to 25
CN[C@@H](C)C(=O)N[C@H](C(=O)N1CCC[C@H]1CN(CCc1ccc(F)cc1)C(=O)CNC(=O)c1ccc(C(=O)NCC(=O)N(CCc2ccc(F)cc2)C[C@@H]2CCCN2C(=O)[C@@H](NC(=O)[C@H](C)NC)C(C)(C)C)cc1)C(C)(C)C [Compound 71]	< 10
CN[C@@H](C)C(=O)N[C@H](C(=O)N1CCC[C@H]1CN(CCc1ccc(F)cc1)C(=O)CNC(=O)C(=O)NCC(=O)N(CCc1ccc(F)cc1)C[C@@H]1CCCN1C(=O)[C@@H](NC(=O)[C@H](C)NC)C(C)(C)C)C(C)(C)C [Compound 73]	< 10
CN[C@@H](C)C(=O)N[C@H](C(=O)N1CCC[C@H]1CN(Cc1cccc(-c2ccccc2)c1)C(=O)CCCCCCCCC(=O)N(Cc1cccc(-c2ccccc2)c1)C[C@@H]1CCCN1C(=O)[C@@H](NC(=O)[C@H](C)NC)C(C)(C)C)C(C)(C)C [Compound 75]	10 to 25
CN[C@@H](C)C(=O)N[C@H](C(=O)N1CCC[C@H]1CN(CCc1ccc(F)cc1)C(=O)CNC(=O)c1ccc(-c2ccc(C(=O)NCC(=O)N(CCc3ccc(F)cc3)C[C@@H]3CCCN3C(=O)[C@@H](NC(=O)[C@H](C)NC)C(C)(C)C)cc2)cc1)C(C)(C)C [Compound 76]	< 10
CN[C@@H](C)C(=O)N[C@H](C(=O)N1CCC[C@H]1CN(CCc1ccccc1)C(=O)CN(C)C(=O)c1ccc(-c2ccc(C(=O)N(C)CC(=O)N(CCc3ccccc3)C[C@@H]3CCCN3C(=O)[C@@H](NC(=O)[C@H](C)NC)C(C)(C)C)cc2)cc1)C(C)(C)C [Compound 77]	10 to 25
CN[C@@H](C)C(=O)N[C@H](C(=O)N1CCC[C@H]1C(=O)N(CCc1ccccc1)Cc1ccc(CN(CCc2ccccc2)C(=O)[C@@H]2CCCN2C(=O)[C@@H](NC(=O)[C@H](C)NC)C(C)(C)C)cc1)C(C)(C)C [Compound 79]	10 to 25
CN[C@@H](C)C(=O)N[C@H](C(=O)N1CCC[C@H]1CN(CCc1ccccc1)C(=O)[C@H]1CCCN1C(=O)c1ccc(C(=O)N2CCC[C@@H]2C(=O)N(CCc2ccccc2)C[C@@H]2CCCN2C(=O)[C@@H](NC(=O)[C@H](C)NC)C(C)(C)C)cc1)C(C)(C)C [Compound 81]	> 25
CN[C@@H](C)C(=O)N[C@H](C(=O)N1CCC[C@H]1CN(CCc1ccc(F)cc1)C(=O)CNC(=O)c1cccc(C(=O)NCC(=O)N(CCc2ccc(F)cc2)C[C@@H]2CCCN2C(=O)[C@@H](NC(=O)[C@H](C)NC)C(C)(C)C)c1)C(C)(C)C [Compound 83]	< 10
CN[C@@H](C)C(=O)N[C@H](C(=O)N1CCC[C@H]1CN(CCc1ccccc1)C(=O)CNC(=O)c1ccc2ccc(C(=O)NCC(=O)N(CCc3ccccc3)C[C@@H]3CCCN3C(=O)[C@@H](NC(=O)[C@H](C)NC)C(C)(C)C)cc2c1)C(C)(C)C [Compound 85]	< 10
CN[C@@H](C)C(=O)N[C@H](C(=O)N1CCC[C@H]1CN(CCc1ccccc1)C(=O)CNC(=O)c1cccc(C(=O)NCC(=O)N(CCc2ccccc2)C[C@@H]2CCCN2C(=O)[C@@H](NC(=O)[C@H](C)NC)C(C)(C)C)n1)C(C)(C)C [Compound 88]	> 25
CN[C@@H](C)C(=O)N[C@H](C(=O)N1CCC[C@H]1CN(CCc1ccccc1)S(=O)(=O)c1ccc2ccc(S(=O)(=O)N(CCc3ccccc3)C[C@@H]3CCCN3C(=O)[C@@H](NC(=O)[C@H](C)NC)C(C)(C)C)cc2c1)C(C)(C)C [Compound 90]	10 to 25
CN[C@@H](C)C(=O)N[C@H](C(=O)N1CCC[C@H]1CN(CCc1ccccc1)S(=O)(=O)c1ccc2cc(S(=O)(=O)N(CCc3ccccc3)C[C@@H]3CCCN3C(=O)[C@@H](NC(=O)[C@H](C)NC)C(C)(C)C)ccc2c1)C(C)(C)C [Compound 92]	< 10
